Reference: US12208108B2, “Drug targets of delayed aging and human brain diseases” (Texas Tech University System, priority 2016, dated 2025)
Marks after values point to notes of the source that are not given here.

Tests used:
[1] = test system: Human Neuroblastoma (SHSY5Y) cells; test: mRNA levels by Sybr-Green real-time RT-PCR; assay type: cell-based
Description: mRNA levels of mitochondrial dynamics, mitochondrial biogenesis and synaptic genes. Using the reagent TriZol (Invitrogen), the inventors isolated total RNA from all DDQ-treated and untreated cells. mRNA levels of mitochondrial dynamic (Drp1, Fis1, Mfn1 and Mfn2), mitochondrial biogenesis genes (PGC1α, Nrf1, Nrf2 and TFAM) and synaptic genes (PSD95, synaptophysin, synapsin 1, synapsin 2, synaptobrevin 1, synaptobrevin 2, synaptopodin, and GAP43) were measured by using Sybr-Green chemistry-based quantitative real time RT-PCR.
FIG. 3 illustrates the experimental strategy of the cell culture work and including treatments. The cells were grown in a medium (1:1 DMEM and F12, 10% FBS, lx penicillin, and streptomycin) at 37° C. in a humified incubator with a 5% CO2 environment. After seeding were allowed to grow for 24-48 hrs or until 80% confluence in six-well plates and used for experiments. The inventors used five different groups of cells—(1) untreated SHSY5Y cells; (2) SHSY5Y cells treated with DDQ (250 nM final concentration) for 24 hrs; (3) SHSY5Y cells incubated with Aβ peptide 1-42 (20 uM final concentration) for 6 hrs; (4) SHSY5Y cells treated Aβ for 6 hrs+DDQ for 24 hrs and (5) SHSY5Y cells treated DDQ for 24 hrs and Aβ for 6 hrs. Half a million SHSY5Y cells were suspended per well into six-well plates. The inventors used Aβ peptide 1-42 and DDQ 250 nM in the experiments. After treatments, the inventors harvested cells, conducted experiments to measure the levels mRNA using Sybr-Green based real-time RT-PCR, proteins using immunoblotting and immunofluorescence analysis and cell viability using MTT assay. The inventors counted the number of mitochondria by electron microscopy.
Quantification of mitochondrial dynamics, biogenesis and synaptic genes expression using real-time RT-PCR. Using the reagent TriZol (Invitrogen), the inventors isolated total RNA from control and experimental groups (FIG. 3). Using primer express Software (Applied Biosystems), the inventors designed the oligonucleotide primers for the housekeeping genes β-actin, mitochondrial structural genes; fission (Drp1 and Fis1); fusion genes (MFN1, MFN2); mitochondrial biogenesis genes PGC1a, Nrf1, Nrf2 and TFAM; and synaptic genes (PSD95, synaptophysin, synapsin 1, synapsin 2, synaptobrevin 1, synaptobrevin 2, synaptopodin, and GAP43). Using SYBR-Green chemistry-based quantitative real-time RT-PCR, the inventors measured mRNA expression of the genes mentioned above as described by Manczak et al..

[2] = target: T1, GTPase-Drp1 (Homo sapiens, UniProt O00429); test: GTPase-Drp1 activity from Drp1 IP elutes; assay type: cell-based
T1 construct: endogenous in cells; host or cells: SHSY5Y human neuroblastoma cells
Description: GTPase-Drp1 activity: To determine whether Aβ affects GTPase-Drp1 activity in cells that treated with Aβ incubation, the inventors measured GTPase-Drp1 activity from Drp1 IP elutes of all cell treatments.

[3] = Aβ + DDQ (Aβ1-42 20 μM 6 hrs, then DDQ 24 hrs) vs untreated cells
[4] = Aβ + DDQ (Aβ1-42 6 hrs, then DDQ 24 hrs) vs Aβ treated cells
[5] = DDQ 250 nM 24 hrs vs untreated cells
[6] = DDQ + Aβ (DDQ 24 hrs, then Aβ1-42 6 hrs) vs Aβ treated cells
[7] = DDQ + Aβ (DDQ 24 hrs, then Aβ1-42 6 hrs) vs untreated cells

T1 sequence (O00429 whole entry): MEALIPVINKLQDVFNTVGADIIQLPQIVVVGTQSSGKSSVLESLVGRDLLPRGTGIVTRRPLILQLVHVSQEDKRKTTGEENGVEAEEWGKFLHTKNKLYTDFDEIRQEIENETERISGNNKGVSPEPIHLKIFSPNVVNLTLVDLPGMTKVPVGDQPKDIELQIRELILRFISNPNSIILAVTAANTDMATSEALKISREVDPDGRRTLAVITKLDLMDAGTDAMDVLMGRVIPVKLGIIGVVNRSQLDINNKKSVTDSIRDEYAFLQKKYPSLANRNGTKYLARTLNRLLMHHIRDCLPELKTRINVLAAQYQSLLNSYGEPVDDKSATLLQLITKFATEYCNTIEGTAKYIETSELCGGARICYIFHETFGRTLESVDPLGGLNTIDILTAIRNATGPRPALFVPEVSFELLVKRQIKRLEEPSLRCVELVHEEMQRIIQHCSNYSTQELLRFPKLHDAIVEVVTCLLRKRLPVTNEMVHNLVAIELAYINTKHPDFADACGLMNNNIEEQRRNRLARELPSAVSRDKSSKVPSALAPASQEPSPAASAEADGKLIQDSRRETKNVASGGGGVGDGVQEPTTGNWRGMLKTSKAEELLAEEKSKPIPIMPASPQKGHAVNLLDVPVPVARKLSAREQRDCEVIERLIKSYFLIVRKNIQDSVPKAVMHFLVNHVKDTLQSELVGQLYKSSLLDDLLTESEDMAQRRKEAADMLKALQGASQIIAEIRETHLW

CCOP(=O)(OCC)C(NCCc1ccc(O)c(O)c1)c1ccnc2ccccc12 (centres unmarked) [DDQ, diethyl(3,4-dihydroxyphenethylamine)(quinolin-4-yl)methylphosphonate]
Drp1 mRNA fold changes [1, 3]: 1.9* fold
Fis1 mRNA fold changes [1, 3]: −1.2 fold
GAP43 mRNA fold changes [1, 3]: 1.1 fold
Mfn1 mRNA fold changes [1, 3]: 1.4 fold
Mfn2 mRNA fold changes [1, 3]: 1.3 fold
Nrf1 mRNA fold changes [1, 3]: −1.7* fold
Nrf2 mRNA fold changes [1, 3]: −1.3 fold
PGC1a mRNA fold changes [1, 3]: −1.8* fold
PSD95 mRNA fold changes [1, 3]: −1.4* fold
Synapsin1 mRNA fold changes [1, 3]: 1.1 fold
Synapsin2 mRNA fold changes [1, 3]: 1.1 fold
Synaptobrevin1 mRNA fold changes [1, 3]: −1.1 fold
Synaptobrevin2 mRNA fold changes [1, 3]: 1.0 fold
Synaptophysin mRNA fold changes [1, 3]: −2.4* fold
Synaptopodin mRNA fold changes [1, 3]: −1.1 fold
TFAM mRNA fold changes [1, 3]: −2.0* fold
Drp1 mRNA fold changes [1, 4]: −1.7* fold
Fis1 mRNA fold changes [1, 4]: −2.0* fold
GAP43 mRNA fold changes [1, 4]: 1.7* fold
Mfn1 mRNA fold changes [1, 4]: 3.3** fold
Mfn2 mRNA fold changes [1, 4]: 3.4** fold
Nrf1 mRNA fold changes [1, 4]: 2.6 fold
Nrf2 mRNA fold changes [1, 4]: 2.1 fold
PGC1a mRNA fold changes [1, 4]: 2.5 fold
PSD95 mRNA fold changes [1, 4]: 1.8* fold
Synapsin1 mRNA fold changes [1, 4]: 2.1* fold
Synapsin2 mRNA fold changes [1, 4]: 2.4* fold
Synaptobrevin1 mRNA fold changes [1, 4]: 2.0* fold
Synaptobrevin2 mRNA fold changes [1, 4]: 2.1* fold
Synaptophysin mRNA fold changes [1, 4]: 1.6* fold
Synaptopodin mRNA fold changes [1, 4]: 2.0* fold
TFAM mRNA fold changes [1, 4]: 2.3 fold
Drp1 mRNA fold changes [1, 5]: −2.2* fold
Drp1 mRNA levels, fold decrease [1, 5]: 2.2 fold
Fis1 mRNA fold changes [1, 5]: −4.4*** fold
Fis1 mRNA levels, fold decrease [1, 5]: 4.4 fold
GAP43 mRNA fold changes [1, 5]: 1.2 fold
Mfn1 mRNA fold changes [1, 5]: 1.7 fold
Mfn2 mRNA fold changes [1, 5]: 2.3 fold
Nrf1 mRNA fold changes [1, 5]: 1.9 fold
Nrf2 mRNA fold changes [1, 5]: 2.7 fold
PGC1a mRNA fold changes [1, 5]: 1.5 fold
PSD95 mRNA fold changes [1, 5]: 1.4 fold
Synapsin1 mRNA fold changes [1, 5]: 1.0 fold
Synapsin2 mRNA fold changes [1, 5]: 1.7 fold
Synaptobrevin1 mRNA fold changes [1, 5]: 1.0 fold
Synaptobrevin2 mRNA fold changes [1, 5]: 1.3 fold
Synaptophysin mRNA fold changes [1, 5]: 1.4 fold
Synaptopodin mRNA fold changes [1, 5]: 1.0 fold
TFAM mRNA fold changes [1, 5]: 1.7 fold
Drp1 mRNA fold changes [1, 6]: −4.6*** fold
Fis1 mRNA fold changes [1, 6]: −2.5* fold
GAP43 mRNA fold changes [1, 6]: 1.7* fold
Mfn1 mRNA fold changes [1, 6]: 2.9** fold
Mfn2 mRNA fold changes [1, 6]: 2.9** fold
Nrf1 mRNA fold changes [1, 6]: 4.9 fold
Nrf2 mRNA fold changes [1, 6]: 2.6 fold
PGC1a mRNA fold changes [1, 6]: 3.9 fold
PSD95 mRNA fold changes [1, 6]: 2.1* fold
Synapsin1 mRNA fold changes [1, 6]: 2.5* fold
Synapsin2 mRNA fold changes [1, 6]: 2.9** fold
Synaptobrevin1 mRNA fold changes [1, 6]: 1.7* fold
Synaptobrevin2 mRNA fold changes [1, 6]: 2.3* fold
Synaptophysin mRNA fold changes [1, 6]: 2.4* fold
Synaptopodin mRNA fold changes [1, 6]: 2.1* fold
TFAM mRNA fold changes [1, 6]: 3.2 fold
Drp1 mRNA fold changes [1, 7]: −2.1* fold
Fis1 mRNA fold changes [1, 7]: −1.3 fold
GAP43 mRNA fold changes [1, 7]: 1.1 fold
Mfn1 mRNA fold changes [1, 7]: 1.2 fold
Mfn2 mRNA fold changes [1, 7]: 1.1 fold
Nrf1 mRNA fold changes [1, 7]: 1.1 fold
Nrf2 mRNA fold changes [1, 7]: −1.1 fold
PGC1a mRNA fold changes [1, 7]: −1.1 fold
PSD95 mRNA fold changes [1, 7]: −1.2 fold
Synapsin1 mRNA fold changes [1, 7]: 1.3 fold
Synapsin2 mRNA fold changes [1, 7]: 1.8* fold
Synaptobrevin1 mRNA fold changes [1, 7]: −1.4 fold
Synaptobrevin2 mRNA fold changes [1, 7]: 1.0 fold
Synaptophysin mRNA fold changes [1, 7]: −1.6* fold
Synaptopodin mRNA fold changes [1, 7]: −1.1 fold
TFAM mRNA fold changes [1, 7]: −1.5* fold
GTPase-Drp1 activity [2, 3]: Significantly increased
GTPase-Drp1 activity ([2]; Aβ + DDQ (Aβ1-42 6 hrs, then DDQ 24 hrs) vs cells incubated with Aβ): reduced
GTPase-Drp1 activity [2, 5]: decreased levels
GTPase-Drp1 activity ([2]; DDQ + Aβ (DDQ 24 hrs, then Aβ1-42 6 hrs) vs cells incubated with Aβ): reduced
